# Test results published in patent publication US5221616A, “Prevention of spontaneous complement activation in mammalian biological fluids” (Quidel Corporation, priority 1988, dated 1993).
# Columns and labels:
# C3 [1] = target: T1, C3 (Homo sapiens, UniProt P01024); experiment: iC3b fragment EIA: spontaneous C3 activation in EDTA-NHP incubated with increasing concentrations of polyhydroxyl compound in water; assay type: biochemical; conditions: 22° C. for 48 hr
# T1 construct: 250 μL of freshly drawn EDTA-normal human plasma (EDTA-NHP); from tissue; host or cells: normal human blood plasma (EDTA plasma; in A12 also citrate and heparin plasma)
# Experimental: FIG. 1. […] 250 μL of freshly drawn EDTA-normal human plasma (EDTA-NHP) was mixed with 0 to 250 μL of 4M β-D-glucose dissolved in deionized water. All reaction mixtures were brought up to a final reaction volume of 500 μL using deionized water as the diluent. Each reaction mixture was mixed thoroughly, incubated at 22° C. for 48 hr and assayed for iC3b fragment levels. A non-incubated control (-70° C.) was prepared by mixing 1 part EDTA-NHP with 1 part 4M β-D-glucose dissolved in deionized water. This control reaction mixture was stored at -70° C. until it was assayed in the iC3b fragment EIA along with the incubated experimental samples.
# Several different polyhydroxyl compounds were individually dissolved in deionized water to obtain solutions of each compound at a concentration approaching saturation at 22° C. Freshly drawn EDTA-NHP was mixed with increasing concentrations of the polyhydroxyl compound to be tested keeping the final reaction volumes constant. For example, 250 μL of freshly drawn EDTA-NHP was mixed with 0 to 250 μL of the concentrated polyhydroxyl solution to be tested. All reaction mixtures were brought up to a final reaction volume of 500 μL using deionized water as the diluent. Each reaction mixture was mixed thoroughly and incubated at 22° C. for 48 hr. A non-incubated control was prepared for each experiment by mixing 1 part EDTA-NHP with 1 part of the concentrated polyhydroxyl solution to be tested. This control mixture was held at -70° C. until it was thawed out, along with the other experimental samples, and assayed for the occurrence of spontaneous complement activation. For this initial set of experiments, iC3b fragment levels were quantitated in all test samples using the Cytotech monoclonal antibody based EIA procedure. The first analyte selected to be measured was iC3b since, based on previously published data as outlined above, it was anticipated that the C3 protein would be the most susceptible to spontaneous activation upon storage of EDTA-NHP in vitro.
# All of the EIA tests employed in these studies utilized solid-phase monoclonal antibody capture assay kit procedures (Cytotech, Inc., San Diego, Calif.). The procedure was basically the same for each EIA kit. Briefly, in the first step of each EIA assay, 100 μL of standards, controls and diluted test specimens were incubated at 22° C., i.e., room temperature, in duplicate polystyrene microtiter wells precoated with a capture monoclonal antibody which specifically reacted with the complement fragment or complex under investigation. During this first incubation period, complement fragments or complexes were bound to the monoclonal antibody coated microassay wells. A wash cycle removed unbound materials.
# In the second step, 50 μL of horseradish peroxidase (HRP)-conjugated purified IgG antibody, which reacted with the captured complement fragment or complex analyte, was added to each well and incubated at 22° C. A wash cycle removed unbound conjugate.
# In the third step, 100 μL of the HRP enzyme substrate ABTS (0.034% ABTS and 0.0126% H2 O2 in 100 mM sodium citrate buffer, pH 4.0) was added to each well and incubated at 22° C. The bound HRP-conjugatedantibody reacted with the ABTS substrate producing a green color which was proportional to the amount of specimen analyte bound. The HRP-enzymatic reaction was stopped upon addition of 50 μL 250 mM oxalic acid. The substrate color intensity present in each well was measured at 405 nm using an automated EIA microplate reader and the analyte concentration/mL in the original test specimen was determined for each analyte from the appropriate standard curve.
# iC3b EIA: The capture mouse monoclonal antibody used to coat microtiter wells for the iC3b fragment EIA was Cytotech MoAb 013III-1.1.6.1 which reacts with a neoantigenic determinant expressed on the iC3b activation fragment of human C3.
# C3 [2] = target: T1, C3; experiment: polyhydroxyl compounds in Buffer B mixed with EDTA-NHP: iC3b and C3d,g/iC3b fragment EIA; assay type: biochemical; conditions: final concentration 2M, 22° C. for 48 hr
# Experimental: An extensive series of experiments were conducted to examine the ability of a large variety of polyhydroxyl compounds to prevent the spontaneous activation of C in EDTA-NHP during in vitro storage at 22° C for 48 hr. EDTA-NHP was mixed with an equal volume of Buffer B containing the polyhydroxyl compound to be tested. In these experiments Buffer B consisted of 40 mM EDTA and 30 IU sodium heparin/mL dissolved in deionized water, pH 7.2. The final concentration of polyhydroxyl compound dissolved in Buffer B varied for each compound due to differences in solubility. For each set of experiments, EDTA-NHP was also diluted and mixed with an equal volume of PBS (untreated control). The EDTA-NHP samples mixed with each polyhydroxyl compound dissolved in Buffer B and the corresponding untreated controls were incubated at 22° C. for 48 hr, stored at -70° C. and subsequently assayed for C4d, iC3b, C3d,g/iC3b and Bb complement fragment levels as well as for circulating immune complex levels using the Raji Cell Replacement EIA. […] This conclusion was based upon the iC3b percent protection values determined for each of the polyhydroxyl compounds (treated samples) as listed in FIG. 14.
# The concentrations, expressed as μg analyte/mL, of a number of different activation products of spontaneous complement activation were measured in the course of these experiments. In an effort to normalize the data obtained from the various determinations so that the results from different assays could be directly compared to one another, a percent protection value was calculated for each analyte measured. The precent protection values were calculated by dividing the μg analyte/mL in the non-incubated, time-zero control sample by the μg analyte/mL in the experimental sample, multiplied by 100%. A percent protection value of 70 to 130% for any given analyte measured in an experimental sample was considered to indicate that the invention formulation tested was fully effective at providing protection against the occurrence of spontaneous complement activation. Ideally, the effective composition formulation would provide full protection against the occurrence of spontaneous complement activation in a complement-containing sample for all of the analytes measured. In fact, this was the case with several polyhydroxyl compounds when they were present in sufficiently high concentrations in a preferred embodiment of the invention.
# A plasma dilution of 1:50 and a serum dilution of 1:100 were used in the iC3b fragment EIA tests. The immunochemical reaction specificity of MoAb 013III-1.1.6.1 has been published previously in abstract form, W. P. Kolb, et al., Fed. Proc. 44:990 (1985).
# A plasma dilution of 1:250 and a serum dilution of 1:500 were used in the C3d,g/iC3b EIA tests. […] 135:2015-2019 (1985); Y. Kanayama, et al., J. Immunol. Meth. 88:33-36 (1986). The immunochemical reaction specificity of the Cytotech MoAb 013III-31.4.3.2.2has been published previously in abstract form, W. P. Kolb, et al., FASEB Journal 2:A1834 (1988).
# T1 sequence (P01024 672-1663 limits assumed): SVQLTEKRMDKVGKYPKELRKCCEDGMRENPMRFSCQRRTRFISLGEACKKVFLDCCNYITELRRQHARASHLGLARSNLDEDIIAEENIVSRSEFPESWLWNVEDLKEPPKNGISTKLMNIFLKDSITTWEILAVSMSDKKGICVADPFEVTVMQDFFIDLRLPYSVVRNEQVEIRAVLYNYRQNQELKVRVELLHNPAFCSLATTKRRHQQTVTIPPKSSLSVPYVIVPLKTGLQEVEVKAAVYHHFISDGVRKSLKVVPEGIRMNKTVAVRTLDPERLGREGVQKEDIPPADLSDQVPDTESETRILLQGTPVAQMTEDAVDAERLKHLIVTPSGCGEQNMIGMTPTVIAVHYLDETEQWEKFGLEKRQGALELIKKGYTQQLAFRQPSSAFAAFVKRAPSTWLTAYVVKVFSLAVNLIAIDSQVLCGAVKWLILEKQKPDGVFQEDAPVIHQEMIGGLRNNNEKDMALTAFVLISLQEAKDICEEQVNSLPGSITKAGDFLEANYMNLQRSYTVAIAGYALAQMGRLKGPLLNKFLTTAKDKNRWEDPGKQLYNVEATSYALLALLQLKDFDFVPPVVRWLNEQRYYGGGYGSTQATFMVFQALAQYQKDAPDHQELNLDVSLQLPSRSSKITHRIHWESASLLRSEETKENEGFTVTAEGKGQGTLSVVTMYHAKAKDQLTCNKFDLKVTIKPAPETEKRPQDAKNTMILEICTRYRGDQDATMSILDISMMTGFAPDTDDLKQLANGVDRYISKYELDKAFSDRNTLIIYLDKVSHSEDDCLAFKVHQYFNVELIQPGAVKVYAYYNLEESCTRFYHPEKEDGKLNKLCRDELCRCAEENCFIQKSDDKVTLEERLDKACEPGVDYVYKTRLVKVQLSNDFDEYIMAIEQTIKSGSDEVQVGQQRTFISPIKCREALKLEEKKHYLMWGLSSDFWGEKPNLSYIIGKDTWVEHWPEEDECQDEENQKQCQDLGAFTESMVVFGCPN
# T1 sequence (P01024 23-667 limits assumed): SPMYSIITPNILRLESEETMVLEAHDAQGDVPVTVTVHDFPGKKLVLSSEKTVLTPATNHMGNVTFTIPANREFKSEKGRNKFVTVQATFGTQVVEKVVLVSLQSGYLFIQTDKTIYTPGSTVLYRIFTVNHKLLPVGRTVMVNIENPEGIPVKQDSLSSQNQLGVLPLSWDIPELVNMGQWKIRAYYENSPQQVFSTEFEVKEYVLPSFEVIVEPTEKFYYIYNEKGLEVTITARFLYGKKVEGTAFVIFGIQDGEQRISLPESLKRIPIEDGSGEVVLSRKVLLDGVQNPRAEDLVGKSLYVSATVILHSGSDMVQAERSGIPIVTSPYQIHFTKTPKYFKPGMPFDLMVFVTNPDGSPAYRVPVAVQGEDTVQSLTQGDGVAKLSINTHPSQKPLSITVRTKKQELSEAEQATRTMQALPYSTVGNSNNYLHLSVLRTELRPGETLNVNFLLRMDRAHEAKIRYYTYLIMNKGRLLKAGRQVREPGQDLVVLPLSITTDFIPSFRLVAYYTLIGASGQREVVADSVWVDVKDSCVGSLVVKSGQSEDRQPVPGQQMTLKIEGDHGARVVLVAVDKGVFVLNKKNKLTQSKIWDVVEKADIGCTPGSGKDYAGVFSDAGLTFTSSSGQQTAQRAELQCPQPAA
smiles,measurement,setting,value
OC[C@H]1O[C@@H](O)[C@H](O)[C@@H](O)[C@@H]1O [β-D-glucose],final concentration that completely prevented spontaneous iC3b fragment production,C3 [1]; compared with -70° C. control,≥ 1.3 M
same,spontaneous iC3b fragment production,C3 [1]; increasing final concentrations of compound (galactose up to 2M),inhibited with increasing concentrations
same,prevention of spontaneous activation of C3,C3 [2],completely prevented
